Results on eleven molecules are retold here after publication PMC11579929, “Proline-Modified RWn Peptides: Enhanced Antifungal Efficacy and Synergy with Conventional Antibiotics for Combating Resistant Fungal Infections” (ACS Omega, 2024).

Values after ≈ are worked out from the molar mass of the structure shown. Where two headings read alike, the source gives them in different places. Where no end group is shown, it is not given here.

One data set concerns HEK293 and RBC. The experiment in a line: Toxicity (HEK293 and RBC), stated jointly. Type of data set: cell-based, human. On the procedure: (§1) The antifungal activities were evaluated by determining the minimum inhibitory concentration (MIC) against C. albicans [ATCC 90028] and C. neoformans [ATCC 208821] that inhibits 99% fungal growth. Cytotoxicity and hemolytic activities were assessed against human embryonic kidney (HEK293) cells and human red blood cells, respectively. The antimicrobial screening was performed by The Community for Antimicrobial Drug Discovery (CO-ADD).[31] Cytotoxicity assays were performed on active compounds to assess their selectivity toward microbial cells. The protocol for the cytotoxicity assay is described in the Supporting Information.[28]

The next data set is described as follows: Cytotoxicity assay. It counts as cell-based. The conditions noted are these: human, HEK293 cells. On the procedure: as §1
The next data set deals with human red blood cells. The experiment in a line: Hemolytic activity. Type of data set: cell-based. To be noted: for Hemolytic Toxicity (<32 mg/mL): yes/no below as printed. The method, then:
The antifungal activities were evaluated by determining the minimum inhibitory concentration (MIC) against C. albicans [ATCC 90028] and C. neoformans [ATCC 208821] that inhibits 99% fungal growth. Cytotoxicity and hemolytic activities were assessed against human embryonic kidney (HEK293) cells and human red blood cells, respectively. The antimicrobial screening was performed by The Community for Antimicrobial Drug Discovery (CO-ADD).[31]

Data set [1] relates to C. neoformans [ATCC 208821]. The experiment in a line: microbe, parasite or virus in culture. It counts as cell-based, Cryptococcus neoformans. The conditions noted are these: for MIC: Cryptococcus neoformans.
The test system of the next data set is C. albicans [ATCC 90028]. The experiment in a line: microbe, parasite or virus in culture. To be noted: for MIC: Candida albicans. Type of data set: cell-based, Candida albicans.

With RWRWRWPRWRWRW-NH2 [RW6P], the “Toxicity in HEK293 or red blood cells (in words)” value in the data set with HEK293 and RBC was “without observable toxicity”. The molecule also gave a CC50 in the data set “Cytotoxicity assay” greater than 32 µg/mL. Further, in the data set with human red blood cells (Table 3, unit not given), the “Hemolytic Activity” value is given as greater than 32.
`OC(Cn1cncn1)(Cn1cncn1)c1ccc(F)cc1F` [Fluconazole, reference compound]: the MIC in data set [1] (ATCC208821, BMD method, YNB, 384 NBS plates, average of ≥ 6 independent biological replicates, antifungal standard, read-out: MIC Cryptococcus neoformans H99 ATCC 208821) is 8 µg/mL (≈ 26.1 µM); in the data set on C. albicans [ATCC 90028] (ATCC90028, BMD method, YNB, 384 NBS plates, average of ≥ 6 independent biological replicates, antifungal standard, read-out: MIC Candida albicans ATCC 90028) it was 0.125 µg/mL (≈ 0.408 µM).
For RWRWRWRWRWRWRWRW-NH2 [RW8, (RW)8-NH2], in data set [1] (ATCC 208821, 3 h), the “C. neoformans MIC” value came out at 0.5 µg/mL. The molecule further had a CC50 in “Cytotoxicity assay” greater than 32 µg/mL. Besides, the “C. albicans MIC” value in the data set on C. albicans [ATCC 90028] (ATCC 90028, 3 h) turned out to be 32 µg/mL. The “Hemolytic Activity” value in the data set on human red blood cells (Table 2, human red blood cells) was determined as 0.452 µg/mL. In the data set with human red blood cells, the “Hemolytic Toxicity (<32 mg/mL)” value is recorded as “Yes”.
With `N=C(N)NCCC[C@H](NC(=O)[C@H](Cc1c[nH]c2ccccc12)NC(=O)[C@H](CCCNC(=N)N)NC(=O)[C@H](Cc1c[nH]c2ccccc12)NC(=O)[C@H](CCCNC(=N)N)NC(=O)[C@H](Cc1c[nH]c2ccccc12)NC(=O)[C@H](CCCNC(=N)N)NC(=O)[C@H](Cc1c[nH]c2ccccc12)NC(=O)[C@H](CCCNC(=N)N)NC(=O)[C@H](Cc1c[nH]c2ccccc12)NC(=O)[C@@H](N)CCCNC(=N)N)C(=O)N[C@@H](Cc1c[nH]c2ccccc12)C(N)=O` [RW6, (RW)6-NH2], the CC50 in the data set “Cytotoxicity assay” is greater than 32 µg/mL. For the same molecule, in the data set with C. albicans [ATCC 90028] (ATCC 90028, 3 h), the “C. albicans MIC” value came out at 8 µg/mL. In addition, in the data set on human red blood cells (Table 2, human red blood cells), the “Hemolytic Activity” value is no more than 0.25 µg/mL. Besides, the “Hemolytic Toxicity (<32 mg/mL)” value in the data set on human red blood cells is on record as “Yes”.
`CC[C@H](C)[C@H](N)C(=O)N[C@@H](CC(C)C)C(=O)N1CCC[C@H]1C(=O)N[C@@H](Cc1c[nH]c2ccccc12)C(=O)N[C@@H](CCCCN)C(=O)N[C@@H](Cc1c[nH]c2ccccc12)C(=O)N1CCC[C@H]1C(=O)N[C@@H](Cc1c[nH]c2ccccc12)C(=O)N[C@@H](Cc1c[nH]c2ccccc12)C(=O)N1CCC[C@H]1C(=O)N[C@@H](Cc1c[nH]c2ccccc12)C(=O)N[C@@H](CCCNC(=N)N)C(=O)N[C@@H](CCCNC(=N)N)C(N)=O` [Indolicidin, reference compound]: the “C. neoformans MIC” value in data set [1] (ATCC 208821, concentration that inhibits 99% fungal growth, peptide alone) was greater than 32 µg/mL. Besides, in “Cytotoxicity assay” (Table 2, read-out: HEK293 Toxicity), the CC50 is greater than 32 µg/mL. The “C. albicans MIC” value in the data set on C. albicans [ATCC 90028] (ATCC 90028, concentration that inhibits 99% fungal growth, peptide alone) is greater than 32 µg/mL. In the data set with human red blood cells (Table 2, human red blood cells), the “Hemolytic Activity” value was greater than 32 µg/mL. Besides, the “Hemolytic Toxicity (<32 mg/mL)” value with human red blood cells is reported as “No”.
In the case of `CC1(C)S[C@@H]2[C@H](NC(=O)[C@H](N)c3ccccc3)C(=O)N2[C@H]1C(=O)O` [AMP, ampicillin, reference compound], the MIC in data set [1] (ATCC208821, antibiotic alone or 4.75 mg antibiotic mixed with 0.25 mg of peptide, read-out: C. neoformans MIC) was greater than 32 µg/mL; with C. albicans [ATCC 90028] (ATCC90028, antibiotic alone or 4.75 mg antibiotic mixed with 0.25 mg of peptide, read-out: C. albicans MIC) it was greater than 32 µg/mL.
Regarding RWRWRWRW-NH2 [RW4, (RW)4-NH2], the CC50 in “Cytotoxicity assay” is greater than 32 µg/mL. In the data set with human red blood cells (Table 2, human red blood cells), the “Hemolytic Activity” value is greater than 32 µg/mL. For the same molecule, the “Hemolytic Toxicity (<32 mg/mL)” value in the data set on human red blood cells was “No”.
Consider RWRWRWRWPRWRWRWRW-NH2 [RW8P], for which the “C. neoformans MIC” value in data set [1] (ATCC 208821, 3 h) was no more than 0.25 µg/mL. Further, the CC50 in “Cytotoxicity assay” was greater than 32 µg/mL. Besides, the “C. albicans MIC” value in the data set with C. albicans [ATCC 90028] (ATCC 90028, 3 h) was greater than 32 µg/mL. For the same molecule, the “Hemolytic Activity” value in the data set on human red blood cells (Table 3, unit not given) is given as greater than 32.
For RWRWPRWRW-NH2 [RW4P], in that order: no more than 0.25 µg/mL, greater than 32 µg/mL, greater than 32 µg/mL and greater than 32.
For `CN[C@H](CC(C)C)C(=O)N[C@H]1C(=O)N[C@@H](CC(N)=O)C(=O)N[C@H]2C(=O)N[C@H]3C(=O)N[C@H](C(=O)N[C@H](C(=O)O)c4cc(O)cc(O)c4-c4cc3ccc4O)[C@H](O)c3ccc(c(Cl)c3)Oc3cc2cc(c3O[C@@H]2O[C@H](CO)[C@@H](O)[C@H](O)[C@H]2O[C@H]2C[C@](C)(N)[C@H](O)[C@H](C)O2)Oc2ccc(cc2Cl)[C@H]1O` [VAN, vancomycin, reference compound], the MIC was greater than 32 µg/mL in data set [1] (ATCC208821, read-out: C. neoformans MIC) and greater than 32 µg/mL in the data set with C. albicans [ATCC 90028] (ATCC90028, read-out: C. albicans MIC).
As to RWRWPRWRWPRWRW-NH2 [RW6–2P], the “Toxicity in HEK293 or red blood cells (in words)” value with HEK293 and RBC is “without any detectable toxicity”. The molecule further returned a CC50 in the data set “Cytotoxicity assay” greater than 32 µg/mL. Besides, the “Hemolytic Activity” value in the data set on human red blood cells (Table 3, unit not given) is on record as greater than 32.
